This is an account of results in patent US20230140430A1, “1H-PYRAZOLO[4,3-d]PYRIMIDINE COMPOUNDS AS TOLL-LIKE RECEPTOR 7 (TLR7) AGONISTS” (BRISTOL-MYERS SQUIBB COMPANY, priority 2020, published 2023).

pEC50: −log10 of the molar value. Read-outs that look alike come from different tables or passages of the source.

One assay has as its target T1, human TLR7 (Homo sapiens, UniProt Q9NYK1).
T1 construct: host or cells: HEK-Blue TLR7 cells (engineered human embryonic kidney cells)
T1 sequence (Q9NYK1 27-1049): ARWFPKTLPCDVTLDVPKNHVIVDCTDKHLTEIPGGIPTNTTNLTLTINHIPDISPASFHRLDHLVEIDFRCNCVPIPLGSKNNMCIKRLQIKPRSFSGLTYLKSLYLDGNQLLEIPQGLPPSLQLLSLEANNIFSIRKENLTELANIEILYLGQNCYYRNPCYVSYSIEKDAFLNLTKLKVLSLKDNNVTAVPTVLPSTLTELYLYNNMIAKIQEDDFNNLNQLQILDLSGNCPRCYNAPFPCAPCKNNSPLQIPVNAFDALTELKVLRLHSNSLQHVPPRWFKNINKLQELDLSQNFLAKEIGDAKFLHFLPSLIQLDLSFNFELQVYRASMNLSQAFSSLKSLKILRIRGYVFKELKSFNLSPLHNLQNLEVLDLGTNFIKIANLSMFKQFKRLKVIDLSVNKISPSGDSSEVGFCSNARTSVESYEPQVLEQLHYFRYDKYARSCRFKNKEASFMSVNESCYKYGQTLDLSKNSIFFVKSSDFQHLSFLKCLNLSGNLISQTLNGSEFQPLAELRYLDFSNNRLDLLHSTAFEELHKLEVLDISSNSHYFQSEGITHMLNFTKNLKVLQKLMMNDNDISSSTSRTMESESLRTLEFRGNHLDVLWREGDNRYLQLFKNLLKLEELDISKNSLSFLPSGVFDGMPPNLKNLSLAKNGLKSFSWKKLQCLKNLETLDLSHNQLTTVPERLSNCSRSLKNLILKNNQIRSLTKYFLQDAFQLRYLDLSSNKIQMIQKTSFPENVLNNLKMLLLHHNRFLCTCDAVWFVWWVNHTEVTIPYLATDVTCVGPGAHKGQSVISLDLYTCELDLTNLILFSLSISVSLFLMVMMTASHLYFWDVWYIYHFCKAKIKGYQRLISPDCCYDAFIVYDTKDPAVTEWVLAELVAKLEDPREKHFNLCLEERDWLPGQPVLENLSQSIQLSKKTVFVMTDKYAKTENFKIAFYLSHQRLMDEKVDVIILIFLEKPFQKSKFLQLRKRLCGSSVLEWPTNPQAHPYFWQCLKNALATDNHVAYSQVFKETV
The assay can be described thus: Human TLR7 agonist activity assay (HEK-Blue TLR7 SEAP reporter). The following applies: HEK-Blue TLR7 cells, 18 h treatment, average where assay was performed multiple times, read-out: hTLR7 Agonism EC50. In kind it is cell-based.

The subject of a further assay is CD69. The assay is described as follows: Induction of CD69 in human whole blood. It counts as cell-based. The following applies: for pEC50: human whole blood, 17 hrs, CD69 surface staining, 100% set to 1 uM of resiquimod, average where assay was performed multiple times, read-out: hWB CD69 EC50; for EC50: Homo sapiens, 17 h, read-out: hWB CD69 EC50 (nM). The protocol: The induction of Type I interferon (IFN) MX-1 genes and the B-cell activation marker CD69 are downstream events that occur upon activation of the TLR7 pathway. The following is a human whole blood assay that measures their induction in response to a TLR7 agonist.
Heparinized human whole blood was harvested from human subjects and treated with test TLR7 agonist compounds at 1 mM. The blood was diluted with RPMI 1640 media and Echo was used to predot 10 nL per well giving a final concentration of 1 uM (10 nL in 10 uL of blood). After mixing on a shaker for 30 sec, the plates were covered and placed in a 37° C. chamber for o/n=17 hrs. Fixing/lysis buffer was prepared (5×->1× in H2O, warm at 37° C.; Cat #BD 558049) and kept the perm buffer (on ice) for later use.
For surface markers staining (CD69): prepared surface Abs: 0.045 ul hCD14-FITC (ThermoFisher Cat #MHCD1401)+0.6 ul hCD19-ef450 (ThermoFisher Cat #48-0198-42)+1.5 ul hCD69-PE (cat #BD555531)+0.855 ul FACS buffer. Added 3 ul/well, spin1000 rpm for 1 min and mixed on shaker for 30 sec, put on ice for 30 mins. Stop stimulation after 30 min with 70 uL of prewarmed 1× fix/lysis buffer and use Feliex mate to resuspend (15 times, change tips for each plate) and incubate at 37 C for 10 min.
Centrifuge at 2000 rpm for 5 min aspirate with HCS plate washer, mix on shaker for 30 sec and then wash with 70 uL in dPBS and pelleted 2×s (2000 rpm for 5 min) and 50 ul wash in FACS buffer pelleted 1×s (2000 rpm for 5 min). Mix on shaker for 30 sec. For Intracellular markers staining (MX-1): Add 50 ul of BD Perm buffer III and mix on shaker for 30 sec. Incubate on ice for 30 minutes (in the dark). Wash with 50 uL of FACS buffer 2× (spin @2300 rpm×5 min after perm) followed by mixing on shaker for 30 sec. Resuspended in 20 ul of FACS buffer containing MX1 antibody ( )(4812)-Alexa 647: Novus Biologicals #NBP2-43704AF647) 20 ul FACS bf+0.8 ul hlgG+0.04 ul MX-1. Spin 1000 rpm for 1 min, mix on shaker for 30se and the samples were incubated at RT in the dark for 45 minutes followed by washing 2×FACS buffer (spin @2300 rpm×5 min after perm). Resuspend 20 ul (35 uL total per well) of FACS buffer and cover with foil and place in 4° C. to read the following day. Plates were read on iQuePlus. The results were loaded into toolset and […] curves are generated in curve master. The y-axis 100% is set to 1 uM of resiquimod.

Procedure for human TLR7: This procedure describes a method for assaying human TLR7 (hTLR7) agonist activity of the compounds disclosed in this specification.
HEK-Blue™ TLR7 cells were added to each well of a 384-well tissue-culture plate (15,000 cells per well) and incubated 16-18 h at 37° C., 5% CO2. Compounds (100 nl) were dispensed into wells containing the HEK-Blue™ TLR cells and the treated cells were incubated at 37° C., 5% CO2. After 18 h treatment ten microliters of freshly-prepared Quanti-Blue™ reagent (Invivogen) was added to each well, incubated for 30 min (37° C., 5% CO2) and SEAP levels measured using an Envision plate reader (OD=620 nm).

For `CCCCNc1nc(N)nc2cnn(Cc3ccc(C(=O)N4CCNC(=O)C4)cc3OC)c12` [Compound 115, 4-(4-{[5-amino-7-(butylamino)-1H-pyrazolo[4,3-d]pyrimidin-1-yl]methyl}-3-methoxybenzoyl)piperazin-2-one], the negative-log EC50 (pEC50) is 6.42 on human TLR7 and 6.65 in the assay with CD69.
Consider `CCCCNc1nc(N)nc2cnn(Cc3ccc(C(=O)NC4CCN(C)CC4)cc3OC3CC3)c12` [Compound 121, 4-{[5-amino-7-(butylamino)-1H-pyrazolo[4,3-d]pyrimidin-1-yl]methyl}-3-cyclopropoxy-N-(1-methylpiperidin-4-yl)benzamide], for which, at human TLR7, the pEC50 was 6.30. For the same compound, in the assay with CD69, the EC50 is 99.1 nM.
As for `COc1cc(C(=O)N2CCN(CCO)CC2)ccc1Cn1ncc2nc(N)nc(NCc3noc(C)n3)c21` [Compound 133, 2-(4-{4-[(5-amino-7-{[(5-methyl-1,2,4-oxadiazo1-3-yl)methyl]amino}-1H-pyrazolo[4,3-d]pyrimidin-1-yl)methyl]-3-methoxybenzoyl}piperazin-1-yl)ethan-1-ol], the pEC50 on human TLR7 is 5.73; with CD69 it was 6.26.
Turning to `CCCCNc1nc(N)nc2cnn(Cc3ccc(C(=O)NC4CCOCC4)cc3OC)c12` [Compound 102, 4-{[5-amino-7-(butylamino)-1H-pyrazolo[4,3-d]pyrimidin-1-yl]methyl}-3-methoxy-N-(oxan-4-yl)benzamide], the pEC50 with CD69 is at most 6.00.
Turning to `CCCCNc1nc(N)nc2cnn(Cc3ccc(C(=O)N4CCN(CCO)CC4)cc3OC3CC3)c12` [Compound 122, 2-[4-(4-{[5-amino-7-(butylamino)-1H-pyrazolo[4,3-d]pyrimidin-1-yl]methyl}-3-cyclopropoxybenzoyl)piperazin-1-yl]ethan-1-ol], the pEC50 on human TLR7 is 5.92; with CD69 it was 6.47.
Consider `CCCCNc1nc(N)nc2cnn(Cc3ccc(C(=O)N4CCNCC4)cc3OC)c12` [Compound 104, N7-butyl-1-{[2-methoxy-4-(piperazine-1-carbonyl)phenyl]methyl}-1H-pyrazolo[4,3-d]pyrimidine-5,7-diamine], for which the negative logarithm of the EC50 (pEC50) at human TLR7 was 7.39; in the assay on CD69 it was 6.92.
Take `CCCCNc1nc(N)nc2cnn(Cc3ccc(C(=O)N4CCN(CCO)CC4)cc3OC)c12` [Compound 105, 2-[4-(4-{[5-amino-7-(butylamino)-1H-pyrazolo[4,3-d]pyrimidin-1-yl]methyl}-3-methoxybenzoyl)piperazin-1-yl]ethan-1-ol]: the negative logarithm of the EC50 (pEC50) on human TLR7 and with CD69 was 7.49 throughout.
For the compound `CCCCNc1nc(N)nc2cnn(Cc3ccc(C(=O)N4CCC(O)CC4)cc3OC)c12` [Compound 113, 1-(4-{[5-amino-7-(butylamino)-1H-pyrazolo[4,3-d]pyrimidin-1-yl]methyl}-3-methoxybenzoyl)piperidin-4-ol], the pEC50 at human TLR7 was 6.96; in the assay with CD69 it was 6.98.
In the case of `CCCCNc1nc(N)nc2cnn(Cc3ccc(C(=O)N4CCN(CC(F)(F)F)CC4)cc3OC)c12` [Compound 108, N7-butyl-1-({2-methoxy-4-[4-(2,2,2-trifluoroethyl)piperazine-1-carbonyl]phenyl}methyl)-1H-pyrazolo[4,3-d]pyrimidine-5,7-diamine], the pEC50 on human TLR7 is 6.22; in the assay with CD69 it was at most 6.00.
In the case of `COc1cc(C(=O)N2CCN(CCO)CC2)ccc1Cn1ncc2nc(N)nc(NCc3cc(C)on3)c21` [Compound 127, 2-(4-{4-[(5-amino-7-{[(5-methyl-1,2-oxazo1-3-yl)methyl]amino}-1H-pyrazolo[4,3-d]pyrimidin-1-yl)methyl]-3-methoxybenzoyl}piperazin-1-yl)ethan-1-ol], the results for the pEC50 on human TLR7 and in the assay on CD69 were 6.30 and 6.76, respectively.
Consider `COc1cc(C(=O)N2CCN(C)CC2)ccc1Cn1ncc2nc(N)nc(NCc3cc(C)on3)c21` [Compound 130, 1-{[2-methoxy-4-(4-methylpiperazine-1-carbonyl)phenyl]methyl}-N7-[(5-methyl-1,2-oxazo1-3-yl)methyl]-1H-pyrazolo[4,3-d]pyrimidine-5,7-diamine], for which the figures for the pEC50 on human TLR7 and in the assay on CD69 were 6.84 and 7.80, respectively.
As to `CCCCNc1nc(N)nc2c(C)nn(Cc3ccc(C(=O)NC4CCN(C)CC4)cc3OC)c12` [Compound 117, 4-{[5-amino-7-(butylamino)-3-methyl-1H-pyrazolo[4,3-d]pyrimidin-1-yl]methyl}-3-methoxy-N-(1-methylpiperidin-4-yl)benzamide], the pEC50 on human TLR7 is 6.33. The EC50 in the assay with CD69 turned out to be 56.9 nM.
Take `CCCCNc1nc(N)nc2cnn(Cc3ccc(C(=O)N4CCN(C(C)=O)CC4)cc3OC)c12` [Compound 107, 1-[4-(4-{[5-amino-7-(butylamino)-1H-pyrazolo[4,3-d]pyrimidin-1-yl]methyl}-3-methoxybenzoyl)piperazin-1-yl]ethan-1-one]: the pEC50 on human TLR7 was 6.58; with CD69, 7.03.
Consider `CCCCNc1nc(N)nc2cnn(Cc3ccc(C(=O)N4CCC(N(C)C)CC4)cc3OC)c12` [Compound 109, N7-butyl-1-({4-[4-(dimethylamino)piperidine-1-carbonyl]-2-methoxyphenyl}methyl)-1H-pyrazolo[4,3-d]pyrimidine-5,7-diamine], for which the pEC50 is 7.53 on human TLR7 and 7.30 with CD69.
The like results for `CCC[C@@H](CCO)Nc1nc(N)nc2cnn(Cc3ccc(C(=O)NCC4CCNCC4)cc3OC)c12` [Compound 101, 4-[(5-amino-7-{[(3S)-1-hydroxyhexan-3-yl]amino}-1H-pyrazolo[4,3-d]pyrimidin-1-yl)methyl]-3-methoxy-N-[(piperidin-4-yl)methyl]benzamide] were, in that order, 5.89 and at most 6.00.
For `CCCCNc1nc(N)nc2cnn(Cc3ccc(C(=O)N4CCC(CCO)CC4)cc3OC)c12` [Compound 116, 2-[1-(4-{[5-amino-7-(butylamino)-1H-pyrazolo[4,3-d]pyrimidin-1-yl]methyl}-3-methoxybenzoyl)piperidin-4-yl]ethan-1-ol], the pEC50 at human TLR7 was 7.38; with CD69, 7.37.
Take `CCCCNc1nc(N)nc2cnn(Cc3ccc(C(=O)NCCN(C)C)cc3OC)c12` [Compound 111, 4-{[5-amino-7-(butylamino)-1H-pyrazolo[4,3-d]pyrimidin-1-yl]methyl}-N-[2-(dimethylamino)ethyl]-3-methoxybenzamide]: the values for the pEC50 on human TLR7 and with CD69 were 7.11 and 8.17, respectively.
On to `COc1cc(C(=O)N2CCNC(=O)C2)ccc1Cn1ncc2nc(N)nc(NCc3cc(C)on3)c21` [Compound 131, 4-{4-[(5-amino-7-{[(5-methyl-1,2-oxazo1-3-yl)methyl]amino}-1H-pyrazolo[4,3-d]pyrimidin-1-yl)methyl]-3-methoxybenzoyl}piperazin-2-one], for which the pEC50 was 5.66 on human TLR7 and 6.44 in the assay on CD69.

As usually defined, the pEC50 is the negative decadic logarithm of the EC50, by convention in mol/L. For orientation: EC50 means the concentration giving half of the maximal effect.
